Experiments:
[1] = test system: iNOS mRNA expression; assay: Relative RT-PCR of iNOS mRNA expression in RAW 264.7 cells; format: cell-based, mouse; conditions: RAW 264.7, 12 hrs
Description: (§1) FIG. 4A and B: Effect of HMP on mRNA expression of iNOS and COX-2. Fig. A, RAW 264.7 cells were incubated in the presence of LPS (0.5 μg/ml) with or without HMP (12.5, 25 μM) for 12 hrs. Total RNA isolated from RAW 264.7 cells after 12 hrs of treatments with LPS alone or with various concentration of HMP was reverse transcribed to make cDNA and 2 μl (for iNOS) or 1 μl (for COX-2) of cDNA was amplified using gene specific primer (Ambion Inc). Ten μl of each PCR reaction was resolved in 2% agarose gel. Lane 1, control; 2. LPS (0.5 μg/ml); 3, LPS+HMP (12.5 μM) and Lane, 4 LPS+HMP (25 μM). Fig. B, Histogram showing densitometric analysis of iNOS and COX-2 mRNA expression. […] This experiment was repeated 3 times separately with similar observation.
(§2) The RAW 264.7 cells were cultured (10^6/well) in 6 well plate for 24 hrs and then medium was replaced by fresh medium and different concentrations of HMP either alone or in combination of LPS was added and further cultured for 12 hrs. […] Linear range of amplification of iNOS and COX-2 cDNA (2 μl for COX-2 and 1μl for iNOS of RT reaction mixture) was determined using gene specific primers from Ambion Inc (TX, USA), following manufacturer's instruction. The optimum amount of 18S primer and competitor for iNOS and COX-2 gene were also determined as per manufacturer's instruction. […]

[2] = test system: Mouse macrophage cell line RAW 264.7; assay: MTT assay, RAW 264.7 cell viability; format: cell-based; conditions: HMP 6.25 μM-25 μM, 48 hrs
Description: MTT is a pale yellow substrate that is reduced by living cells to yield a dark blue formazan product. […] Mouse macrophage cell line RAW 264.7 were cultured in 96 well flat bottom plate at concentration of 0.25 million/ml and after 12 hrs of preconditioning, various concentrations of diarylheptanoid (HMP) was added and further cultured for 48 hrs. Thereafter, culture medium was aspirated and 100 μl of MTT dye (1 mg/ml in PBS) was added and further incubated for 4 hrs at 37° C. The formazan crystals made due to dye reduction by viable cells were dissolved using acidified isopropanol (0.1 N HCl). Index of cell viability was calculated by measuring the optical density of color produced by MTT dye reduction at 570 nm.

[3] = test system: COX-2 mRNA expression; assay: Relative RT-PCR of COX-2 mRNA expression in RAW 264.7 cells; format: cell-based, mouse; conditions: RAW 264.7, 12 hrs
Description: as §1, §2

[4] = test system: TNF-α production from human PBMCs; assay: TNF-α ELISA in supernatants of LPS-treated human PBMCs; format: cell-based; conditions: 18 hrs
Description: The PBMCs were separated from peripheral blood of normal healthy human volunteers. […] Supernatant was harvested after 18 hrs and stored at −70° C. until tested. The quantity of IL-1β and TNF-α present in supernatants was estimated by ELISA (R&D systems, MN, USA) following manufacturer's instruction. A standard curve was obtained by plotting known concentrations of recombinant human IL-1β and TNF-α vs absorbance at 450 nm.
Each data point represents mean+standard deviation (SD) of 3 replicates.

[5] = Radical-scavenging activity by DPPH
Source text: In this example, the 2,2-diphenyl-1-picrylhydrazyl (DPPH) method was used to explore the capacity of five isolated compounds of the invention to act as free radical scavengers. The DPPH assay has been extensively used to test the free radical scavenging ability of various chemicals (Brand-williams, W. et al., Wiss. Technol. 1995, 28, 25-30; Dinis, T. C. et al., Arch. Biochem. Biophys. 1994, 315, 161-169.)
This method was adapted from that of Brand-Williams, et al. (Brand-williams, W.; Cuvelier, M. E.; Berset, C. Lebensm. Wiss. Technol. 1995, 28, 25-30.). At least seven different concentrations were prepared for each purified compound. 25 μl pure compound solution and 975 μL DPPH solution (63.4 μM) were mixed together and left in the dark for 30 min. Each sample was triplicated and the values were averaged. The absorbance of the samples was measured at 515 nm against methanol solution without DPPH as the blank reference. The absorbance was measured every 30 min until the reaction reached a plateau. The reaction kinetics were then plotted using the above data and the percentage of DPPH remaining at the steady state was obtained. IC50 values were determined by extrapolation from linear regression analysis.
DPPH, 2,2-Diphenyl-1-picrylhydrazyl (DPPH.), is a stable radical in methanol solution. In its radical form, DPPH. absorbs at 515 nm, but the absorption ceases upon reduction by an antioxidant (AH) or a radical species (R.) (Brand-williams, W.; Cuvelier, M. E.; Berset, C. Lebensm. Wiss. Technol. 1995, 28, 25-30.). The concentration of tested chemicals needed to decrease the initial DPPH. concentration by 50% (IC50) is a parameter widely used to measure the antioxidant potential (Kanner, J.; Frankel, E.; German, B.; Kinsella, J. e. J. Agric. Food Chem. 1994, 42, 64-69, Vinson, J. A.; Dabbagh, Y. A.; Serry, M. M. J. Agric. Food Chem. 1995a, 43,2800-2802.). The lower the IC50, the higher the free radical scavenging power.

COc1cc(CC/C=C/C(=O)CCc2ccccc2)ccc1O [AO-4, 7-(4″-hydroxy-3″-methoxyphenyl)-1-phenyl-hept-4-en-3-one]
inhibition of LPS induced iNOS mRNA expression (densitometry, ratio to 18 S RNA) ([1]; HMP 12.5 μM + LPS (0.5 μg/ml)): 47.8%
inhibition of LPS induced iNOS mRNA expression (densitometry, ratio to 18 S RNA) ([1]; HMP 25 μM + LPS (0.5 μg/ml)): 75.5%
cytotoxic effect on RAW 264.7 cells (cell viability, MTT) [2]: almost no cytotoxic effect
inhibition of LPS induced COX-2 mRNA expression (densitometry, ratio to 18 S RNA) ([3]; HMP 12.5 μM + LPS (0.5 μg/ml)): 27.3%
inhibition of LPS induced COX-2 mRNA expression (densitometry, ratio to 18 S RNA) ([3]; HMP 25 μM + LPS (0.5 μg/ml)): 54.6%
TNF-α ([4]; HMP 6.25 μM + LPS (10 ng/ml)): 342.24 ± 11.50 pg/mL
TNF-α ([4]; HMP 6.25 μM alone, detection limit 15.62 pg/ml): <15.62 pg/mL
TNF-α ([4]; HMP 12.5 μM + LPS (10 ng/ml)): 298.49 ± 5.47 pg/mL
TNF-α ([4]; HMP 12.5 μM alone, detection limit 15.62 pg/ml): <15.62 pg/mL
TNF-α ([4]; HMP 25 μM + LPS (10 ng/ml)): 165.38 ± 8.48 pg/mL
TNF-α ([4]; HMP 25 μM alone, detection limit 15.62 pg/ml): <15.62 pg/mL
inhibition of LPS induced TNF-α (in words) ([4]; HMP 6.25-25 μM + LPS): only at 25 μM concentration
IC50 ([5]; DPPH 63.4 μM in methanol, absorbance at 515 nm, steady state, read-out: IC50 (μM) of Diarylheptanoids in Scavenging DPPH Free Radicals): 13.7 µM
free radical scavenging, DPPH data (in words) ([5]; DPPH assay): very good free radical scavengers

— patent US20050215635A1, “Diarylheptanoid compounds and uses thereof” (priority 2004, published 2005)
